Measurements as given in ChEMBL document CHEMBL5316284, “Structural Determinants of Indole-2-carboxamides: Identification of Lead Acetamides with Pan Antimycobacterial Activity” (J Med Chem, 2023).
≈ marks a conversion by molar mass, not a printed value. Calls of active or inactive are those of the source. The calls are words filed in the database; no cut-off is given here.

Tests used:
[1] = test system: Mycobacterium tuberculosis; test: Antimycobacterial activity against Mycobacterium tuberculosis H37Rv mc2 6206 assessed as inhibition of bacterial growth measured after 7 days by visual analysis; format: functional; conditions: H37Rv mc2 6206, 168 h, time 7 day
[2] = test system: Mycolicibacterium fortuitum; test: Antimycobacterial activity against Mycobacterium fortuitum ATCC 6841 assessed as inhibition of bacterial growth by visual analysis; format: functional
[3] = Antimycobacterial activity against Mycobacterium avium subsp. avium 2585R assessed as inhibition of bacterial growth by visual analysis; format: functional
[4] = test system: Mycobacterium intracellulare; test: Antimycobacterial activity against Mycobacterium intracellulare 1956 assessed as inhibition of bacterial growth by visual analysis; format: functional
Mycobacteroides chelonae = test: Antimycobacterial activity against Mycobacteroides chelonae ATCC 35752 assessed as inhibition of bacterial growth by visual analysis; format: functional
[5] = test system: Mycobacterium intracellulare subsp. chimaera; test: Antimycobacterial activity against Mycobacterium intracellulare subsp. chimaera 1501948 assessed as inhibition of bacterial growth by visual analysis; format: functional
Mycobacterium kansasii = test: Antimycobacterial activity against Mycobacterium kansasii ATCC 1279 assessed as inhibition of bacterial growth by visual analysis; format: functional
[6] = Kinetic solubility of compound at pH 7.4 incubated for 6 hrs by LC-MS/MS analysis; format: physicochemical; conditions: buffer, read-out: Kinetic_solubility
[7] = Permeability of the compound by PAMPA method; format: ADME
[8] = Plasma protein binding in human at 10 ug/ml incubated for 4 hrs under shaking condition by LC/MS/MS analysis; format: ADME, cell-free; conditions: at 10 µg/mL, read-out: PPB (converted)
[9] = Metabolic stability in human liver S9 fraction assessed as parent compound remaining at 5 ug/ml after 90 mins in presence of NADPH by LC/MS analysis; format: ADME, subcellular; conditions: s9, 1.5 h, dose 5 µg/ml
[10] = Metabolic stability in mouse liver S9 fraction assessed as parent compound remaining at 5 ug/ml after 90 mins in presence of NADPH by LC/MS analysis; format: ADME, subcellular; conditions: s9, 1.5 h, dose 5 µg/ml
[11] = Cytotoxicity against human WI26VA4 cells assessed as inhibition of cell growth measured after 72 hrs by MTT assay; format: toxicity, cell-based
[12] = Selectivity index, ratio of IC50 for Cytotoxicity against human WI26VA4 cells to MIC for antimycobacterial activity against Mycobacterium abscessus […]; format: toxicity, cell-based; conditions: read-out: Selectivity Index
[13] = Selectivity index, ratio of IC50 for Cytotoxicity against human WI26VA4 cells to MIC for antimycobacterial activity against Mycobacterium tuberculosis H37Rv mc2 6206; format: toxicity, cell-based; conditions: read-out: Selectivity Index
[14] = Cytotoxicity against mouse HEI-OC1 cells assessed as viable cells upto 100 uM measured after 72 hrs by MTT assay; format: toxicity, cell-based; conditions: hei-oc1, 72 h
[15] = test system: Mycobacteroides abscessus; test: Antimycobacterial activity against Mycobacterium abscessus […] assessed as inhibition of mycolic acid biosynthesis at 1 to 10 times of MIC incubated for 3 hrs in presence of [1,2-14C]-acetate by TLC analysis; format: functional, organism-based
[16] = test system: Mycobacteroides abscessus; test: Antimycobacterial activity against Mycobacterium abscessus […] assessed as decrease in mycolic acid transfer onto cell wall arabinogalactan incubated for 3 hrs in presence of [1,2-14C]-acetate by TLC analysis; format: functional, organism-based
[17] = test system: Mycobacteroides abscessus; test: Antimycobacterial activity against Mycobacterium abscessus […] assessed as decrease in mycolic acid transfer onto cell wall trehalose dimycolate incubated for 3 hrs in presence of [1,2-14C]-acetate by TLC analysis; format: functional, organism-based
[18] = test system: Mycobacteroides abscessus; test: Antimycobacterial activity against Mycobacterium abscessus ATCC 19977 harbouring wild type mmpL3 gene assessed as inhibition of bacterial growth by visual analysis; format: functional
[19] = test system: Mycobacteroides abscessus; test: Antimycobacterial activity against Mycobacterium Mycobacterium abscessus ATCC 19977 harbouring mmpL3 I306S mutant gene assessed as inhibition of bacterial growth by visual analysis; format: functional
[20] = test system: Mycobacteroides abscessus; test: Antimycobacterial activity against Mycobacterium abscessus ATCC 19977 harbouring mmpL3 A309P mutant gene assessed as inhibition of bacterial growth by visual analysis; format: functional
[21] = test system: Mycobacteroides abscessus; test: Antimycobacterial activity against Mycobacterium abscessus ATCC 19977 harbouring mmpL3 L551S mutant gene assessed as inhibition of bacterial growth by visual analysis; format: functional
[22] = test system: Mycobacterium tuberculosis; test: Displacement of North 114 from Mycobacterium tuberculosis wild type MmpL3 expressed in Mycobacterium smegmatis upto 8 uM incubated for 15 mins by flow cytometry based competition binding assay
[23] = Binding affinity to Mycobacterium tuberculosis MmpL3 assessed as equilibrium constant by SPR analysis
[24] = Binding affinity to Mycobacterium tuberculosis MmpL3 assessed as dissociation constant by SPR analysis
[25] = Cytotoxicity against mouse HEI-OC1 cells assessed as inhibition of cell growth measured after 72 hrs by MTT assay; format: toxicity, cell-based

| Compound | MIC [1] [µg/mL] | MIC [2] [µg/mL] | MIC [3] [µg/mL] | MIC [4] [µg/mL] | MIC (Mycobacteroides chelonae) [µg/mL] | MIC [5] [µg/mL] | MIC (Mycobacterium kansasii) [µg/mL] | solubility kinetic at 6 h [6] [µg/mL] | permeability [7] | fraction unbound at 4 h, 10 ug/ml [8] | t1/2 [9] [h] | t1/2 [10] [h] | IC50 [11] [µg/mL] | selectivity ratio [12] | selectivity ratio [13] | Activity [15] | Activity [16] | Activity [17] | MIC [18] [µg/mL] | MIC [19] [µg/mL] | also measured |
| --- | --- | --- | --- | --- | --- | --- | --- | --- | --- | --- | --- | --- | --- | --- | --- | --- | --- | --- | --- | --- | --- |
| O=C(CNc1cccc(OC(F)(F)F)c1)NC12CC3CC(CC(C3)C1)C2 | 0.25 (≈ 0.679 µM) | 2 (≈ 5.43 µM) | 8 (≈ 21.7 µM) | 8 (≈ 21.7 µM) | 4 (≈ 10.9 µM) | 16 (≈ 43.4 µM) | 8 (≈ 21.7 µM) | 20.4 (≈ 55.4 µM) | 3.61 10^-6 cm/s | 0.051 | 0.7 | 0.4 | > 20 | > 40 | > 80 | inactive | Active | Active | 0.5 (≈ 1.36 µM) | 1 (≈ 2.71 µM) | Activity [14]: 70.8%; MIC [20]: > 64 µg/mL; MIC [21]: 0.5 µg/mL (≈ 1.36 µM); Activity [22]: Active; Kd [23]: 780 µM; Kd [24]: 1.23 s⁻¹ |
| C[C@@H]1[C@H]2C[C@@H](C[C@H]1NC(=O)CNc1cccc(Cl)c1)C2(C)C | 0.25 (≈ 0.779 µM) | 2 (≈ 6.23 µM) | 8 (≈ 24.9 µM) | 8 (≈ 24.9 µM) | 4 (≈ 12.5 µM) | 16 (≈ 49.9 µM) | 8 (≈ 24.9 µM) | 16.3 (≈ 50.8 µM) | 1.33 10^-6 cm/s | 0.059 | 5.3 | 4.6 | > 20 | > 40 | > 80 | inactive | Active | Active | 0.5 (≈ 1.56 µM) | 1 (≈ 3.12 µM) | IC50 at 72 h [25]: 14.1 µM; MIC [20]: > 64 µg/mL; MIC [21]: 0.5 µg/mL (≈ 1.56 µM); Activity [22]: Active; Kd [23]: 800 µM; Kd [24]: 1.22 s⁻¹ |
